What was measured:
cells = details: Homo sapiens, MRC-5 SV2, 72 h
Description: (§1) Cytotoxicity against human MRC5 SV2 cells assessed as reduction in cell viability incubated for 3 days by fluorimetry

Leishmania infantum = assay: microbe, parasite or virus in culture; details: for IC50: MHOM/MA(BE)/67/ITMAP263, 120 h; for IC90: MHOM/MA(BE)/67/ITMAP263, in Mus musculus, 120 h
Description: Antileishmanial activity against amastigote stage of Leishmania infantum MHOM/MA(BE)/67/ITMAP263 infected in mouse peritoneal macrophage assessed as parasite growth inhibition incubated for 5 days by Giemsa staining based assay

in vitro [1] = details: mouse, liver microsomes
Description: Metabolic stability in mouse liver microsomes assessed as fraction unbound at 0.5 uM incubated for 30 mins by LC-MS/MS analysis

[2] = test system: Trypanosoma brucei rhodesiense; assay: microbe, parasite or virus in culture; details: STIB900, 72 h
Description: Antiprotozoal activity against Trypanosoma brucei rhodesiense STIB900 trypomastigotes incubated for 72 hrs by resazurin dye based fluorimetric analysis

in vitro [3] = details: mouse, liver microsomes; remark: listed apart in the source
Description: Metabolic stability in mouse liver microsomes assessed as intrinsic clearance at 0.5 uM incubated for 30 mins by LC-MS/MS analysis

in vitro [4] = details: human, MRC5 SV2 cells
Description: as §1

Trypanosoma cruzi = assay: microbe, parasite or virus in culture; details: Tulahuen CL2, MRC-5 SV2, 168 h
Description: Antitrypanosomal activity against Trypanosoma cruzi Tulahuen CL2 amastigotes infected in human MRC5 SV2 cells incubated for 7 days by chlorophenol red beta-D-galactopyranoside substrate based spectrophotometric assay

physchem = details: buffer, pH 7.4
Description: Lipophilicity, logD of compound at pH 7.4 by HPLC analysis

in vitro [5] = details: human, liver microsomes
Description: Metabolic stability in human liver microsomes assessed as intrinsic clearance at 0.5 uM incubated for 30 mins by LC-MS/MS analysis

in vitro [6] = details: mouse, peritoneal macrophages
Description: (§2) Cytotoxicity against mouse peritoneal Macrophage cells assessed as reduction in cell viability incubated for 3 days by fluorimetry

Macrophage = assay: cells; details: Mus musculus, 72 h
Description: as §2

Trypanosoma brucei = assay: microbe, parasite or virus in culture; details: Squib 427, 72 h
Description: Antitrypanosomal activity against Trypanosoma brucei Squib 427 assessed as reduction in parasite growth incubated for 72 hrs by resazurin dye based fluorimetric analysis

in vitro [7] = details: PAMPA
Description: Effective permeability of compound by PAMPA assay

in vitro [8] = details: human, MRC5 SV2 cells; remark: listed apart in the source
Description: Selectivity index, ratio of IC50 for human MRC5 SV2 cells to IC50 for Trypanosoma cruzi Tulahuen CL2 amastigotes infected in human MRC5 SV2 cells

Compound	IC50 (Leishmania infantum)	IC90 (Leishmania infantum)	fraction unbound at 0.5 h, 0.5 µM (in vitro [1])	IC50 [2]	IC90 [2]	CLint scaled at 0.5 h, 0.5 µM (in vitro [3])	microsomal CLint at 0.5 h, 0.5 µM (in vitro [3])	IC90 at 72 h (in vitro [4])	logD (physchem)	CLint scaled at 0.5 h, 0.5 µM (in vitro [5])	microsomal CLint at 0.5 h, 0.5 µM (in vitro [5])	IC90 at 72 h (in vitro [6])	IC50 (Trypanosoma brucei)	IC90 (Trypanosoma brucei)	Papp (in vitro [7])	IC50 (cells)	IC50 (Trypanosoma cruzi)	IC90 (Trypanosoma cruzi)	IC50 (Macrophage)	selectivity ratio (in vitro [8])
O=C(c1ccc(C(F)(F)F)nc1)N1CCCC(c2cc3ncccc3[nH]2)C1 (stereo unspecified)	64 µM	64 µM	0.6	64 µM	64 µM	132 mL/min/kg	24.9 µL/min/mg	64 µM	2.68	50.3 mL/min/kg	27.9 µL/min/mg	64 µM	64 µM	64 µM	0.887 ×10⁻⁶ cm/s	64 µM	64 µM	64 µM	64 µM	–
O=C(c1ccccc1)N1CCCC(c2cn3ncccc3n2)C1 (stereo unspecified)	64 µM	64 µM	0.877	64 µM	64 µM	10500 mL/min/kg	2900 µL/min/mg	64 µM	2.39	167 mL/min/kg	135 µL/min/mg	64 µM	64 µM	64 µM	13.9 ×10⁻⁶ cm/s	64 µM	64 µM	64 µM	64 µM	–
O=C(c1ccccc1)N1CCN(c2nc3ccccc3s2)CC1	64 µM	64 µM	0.518	64 µM	64 µM	24700 mL/min/kg	4010 µL/min/mg	64 µM	3.4	–	–	64 µM	64 µM	64 µM	40.4 ×10⁻⁶ cm/s	64 µM	64 µM	64 µM	64 µM	–
O=C(c1ccccc1)N1CCCC(c2nc3ncccc3[nH]2)C1 (stereo unspecified)	64 µM	64 µM	0.723	64 µM	64 µM	763 mL/min/kg	173 µL/min/mg	64 µM	1.97	< 35 mL/min/kg	< 23 µL/min/mg	64 µM	64 µM	64 µM	2.43 ×10⁻⁶ cm/s	64 µM	64 µM	64 µM	64 µM	–
CC(C)(C)OC(=O)N1CCCC(c2cn3nc(Cl)ccc3n2)C1 (stereo unspecified)	64 µM	64 µM	–	64 µM	64 µM	> 11300 mL/min/kg	3540 µL/min/mg	64 µM	4.04	> 200 mL/min/kg	185 µL/min/mg	64 µM	64 µM	64 µM	22.4 ×10⁻⁶ cm/s	64 µM	29.5 µM	60.3 µM	64 µM	2.15
O=C(c1cc(C(F)(F)F)n[nH]1)N1CCCC(c2cc3ncccc3[nH]2)C1 (stereo unspecified)	64 µM	64 µM	0.493	64 µM	64 µM	832 mL/min/kg	128 µL/min/mg	64 µM	3.07	278 mL/min/kg	127 µL/min/mg	64 µM	64 µM	64 µM	0.881 ×10⁻⁶ cm/s	64 µM	64 µM	64 µM	64 µM	–

The remaining molecules from weak to strong by IC50 (Leishmania infantum), led by results:

IC50 (Leishmania infantum)	IC90 (Leishmania infantum)	fraction unbound at 0.5 h, 0.5 µM (in vitro [1])	IC50 [2]	IC90 [2]	CLint scaled at 0.5 h, 0.5 µM (in vitro [3])	microsomal CLint at 0.5 h, 0.5 µM (in vitro [3])	IC90 at 72 h (in vitro [4])	logD (physchem)	CLint scaled at 0.5 h, 0.5 µM (in vitro [5])	microsomal CLint at 0.5 h, 0.5 µM (in vitro [5])	IC90 at 72 h (in vitro [6])	IC50 (Trypanosoma brucei)	IC90 (Trypanosoma brucei)	Papp (in vitro [7])	Compound	IC50 (cells)	IC50 (Trypanosoma cruzi)	IC90 (Trypanosoma cruzi)	IC50 (Macrophage)	selectivity ratio (in vitro [8])
64 µM	64 µM	0.89	64 µM	64 µM	115 mL/min/kg	31.9 µL/min/mg	64 µM	1.8	33.5 mL/min/kg	27.5 µL/min/mg	64 µM	64 µM	64 µM	1.03 to 1.37 ×10⁻⁶ cm/s	Cn1nccc1C(=O)N1CCCC(c2cc3ncccc3[nH]2)C1 (stereo unspecified)	64 µM	64 µM	64 µM	64 µM	–
64 µM	64 µM	0.815	19.6 µM	30.6 µM	593 mL/min/kg	151 µL/min/mg	64 µM	3.39	35 mL/min/kg	26.4 µL/min/mg	64 µM	64 µM	64 µM	14.4 ×10⁻⁶ cm/s	COc1ccc2[nH]c(C3CCCN(C(=O)c4ccc(F)cc4)C3)cc2n1 (stereo unspecified)	64 µM	64 µM	64 µM	64 µM	–
64 µM	64 µM	0.211	64 µM	64 µM	19200 mL/min/kg	1270 µL/min/mg	64 µM	2.3	468 mL/min/kg	91.3 µL/min/mg	64 µM	64 µM	64 µM	16.5 ×10⁻⁶ cm/s	O=C(c1ccccc1)N1CCCC(c2cc3ncccn3n2)C1 (stereo unspecified)	64 µM	64 µM	64 µM	64 µM	–
64 µM	64 µM	0.801	64 µM	64 µM	314 mL/min/kg	78.8 µL/min/mg	64 µM	2.15	< 31.2 mL/min/kg	< 23 µL/min/mg	64 µM	64 µM	64 µM	1.56 to 2.14 ×10⁻⁶ cm/s	Cc1nc(C)c(C(=O)N2CCCC(c3cc4ncccc4[nH]3)C2)o1 (stereo unspecified)	64 µM	64 µM	64 µM	64 µM	–
64 µM	64 µM	–	64 µM	64 µM	6690 mL/min/kg	1750 µL/min/mg	64 µM	2.86	167 mL/min/kg	129 µL/min/mg	64 µM	64 µM	64 µM	3.09 ×10⁻⁶ cm/s	Cc1ccoc1C(=O)N1CCCC(c2cc3ncccc3[nH]2)C1 (stereo unspecified)	64 µM	21.3 µM	55.5 µM	64 µM	3
64 µM	64 µM	0.805	64 µM	64 µM	338 mL/min/kg	127 µL/min/mg	64 µM	1.71	< 31.7 mL/min/kg	< 23 µL/min/mg	64 µM	64 µM	64 µM	2.75 ×10⁻⁶ cm/s	O=C(c1ccccc1)N1CCCC(c2cn3cccnc3n2)C1 (stereo unspecified)	64 µM	64 µM	64 µM	64 µM	–

From ChEMBL document CHEMBL4342426, “Structure-activity relationship of 4-azaindole-2-piperidine derivatives as agents against Trypanosoma cruzi” (Bioorg Med Chem Lett, 2020)
